{
  "source": "patent US20180125796A1",
  "about": "“TREATMENT OF MYCOBACTERIAL INFECTION” (priority 2015, published 2018)",
  "test_system": "NPC1",
  "format": "cell-based, Chinese Hamster",
  "data": [
    {"substance": "trehalose dimycolate [TDM]", "values": [
      {"measurement": "resistance to phenotype induction by TDM versus extent of NPC1 overexpression", "result": "cells over-expressing NPC1 by 15-fold were more resistant than those over-expressing NPC1 5-fold"},
      {"measurement": "induction of NPC cellular phenotypes by TDM in CHO cells overexpressing NPC1, versus wild-type cells", "setting": "FIG. 10B", "result": "more resistant to induction of NPC cellular phenotypes than wild-type cells"}
    ]}
  ]
}
